Results published in US8530652B2, “Pyrrolopyrazoles, potent kinase inhibitors” (Agouron Pharmaceuticals, Inc., priority 2005, dated 2013).

Legend:
[1] = target: PAK4 kinase activity in whole cells (TR-293-KDG, modified HEK 293 overexpressing GEF-H1b and PAK4 KD) (Homo sapiens (Human), UniProt O96013); assay: PAK4 cellular assay: sandwich ELISA of PAK4-dependent phosphorylation of GEF-H1b in TR-293-KDG cells; type: cell-based; conditions: doxycycline-induced, 3-hour exposure, phospho-GEF-H1b ELISA
Sequence of PAK4 kinase activity in whole cells (TR-293-KDG, modified HEK 293 overexpressing GEF-H1b and PAK4 KD) (O96013 321-572): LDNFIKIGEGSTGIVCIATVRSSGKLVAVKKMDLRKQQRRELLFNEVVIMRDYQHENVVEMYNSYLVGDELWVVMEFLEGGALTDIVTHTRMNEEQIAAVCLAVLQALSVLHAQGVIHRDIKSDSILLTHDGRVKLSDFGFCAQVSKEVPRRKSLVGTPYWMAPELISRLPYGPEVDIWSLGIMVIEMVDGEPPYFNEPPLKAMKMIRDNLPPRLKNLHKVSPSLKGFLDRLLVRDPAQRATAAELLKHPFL
Method in brief: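 HEK 293-derived TR-293-KDG cells overexpressing GEF-H1b, with PAK4 kinase domain induced overnight by doxycycline, then exposed to compound for 3 h. Lysates captured on anti-HA plates; phospho-GEF-H1b detected by phosphospecific antibody in sandwich ELISA. EC50 from four-parameter sigmoid fit.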

[2] = target: PAK4 kinase domain (PAK4 KD) (Homo sapiens (Human), UniProt O96013); assay: PAK4 kinase domain enzymatic assay (coupled PK/LDH, NADH absorbance at 340 nm); type: biochemical; conditions: PAK4 kinase domain, 25 nM PAK4 KD, 0.04 mM ATP, pH 7.5
Sequence of PAK4 kinase domain (PAK4 KD) (O96013 321-572): as above

Row | SMILES | EC50 [1] [nM] | Ki [2] [nM]
1 | CC1(C)c2[nH]nc(Nc3ncnc4sccc34)c2CN1C(=O)N[C@@H]1C[C@H]1c1ccccc1 (relative stereo) [Example 42, 6,6-dimethyl-N-[trans-2-phenylcyclopropyl]-3-(thieno[2,3-d]pyrimidin-4-ylamino)-4,6-dihydropyrrolo[3,4-c]pyrazole-5(1H)-carboxamide] | 610 | 94
2 | CC1(C)c2[nH]nc(Nc3ncnc4ccoc34)c2CN1C(=O)N[C@H]1C[C@@H]1c1ccccc1 (relative stereo) [Example 53, 3-(furo[3,2-d]pyrimidin-4-ylamino)-6,6-dimethyl-N-(trans-2-phenylcyclopropyl)-4,6-dihydropyrrolo[3,4-c]pyrazole-5(1H)-carboxamide] | 1740 | 67
3 | CN(C)C[C@@H](OC(=O)N1Cc2c(Nc3ncnc4sccc34)n[nH]c2C1(C)C)c1ccccc1 [Example 75, (1S)-2-(dimethylamino)-1-phenylethyl 6,6-dimethyl-3-(thieno[2,3-d]pyrimidin-4-ylamino)-4,6-dihydropyrrolo[3,4-c]pyrazole-5(1H)-carboxylate] | < 3.9 | 5.2
4 | CN(C)C[C@@H](OC(=O)N1Cc2c(Nc3ncncc3F)n[nH]c2C1(C)C)c1ccccc1 [Example 80, (1S)-2-(dimethylamino)-1-phenylethyl 3-[(5-fluoropyrimidin-4-yl)amino]-6,6-dimethyl-4,6-dihydropyrrolo[3,4-c]pyrazole-5(1H)-carboxylate] | 20 | 120
5 | CN1CCN(C(=O)N2Cc3c(Nc4nc(Cl)nc5ccsc45)n[nH]c3C2(C)C)[C@@H](Cc2ccccc2)C1 [Example 3, N-(5-{[(2S)-2-benzyl-4-methylpiperazin-1-yl]carbonyl}-6,6-dimethyl-1,4,5,6 tetrahydropyrrolo[3,4-c]pyrazol-3-yl)-2-chlorothieno[3,2-d]pyrimidin-4-amine] | 16 | 11
6 | CN(C)C[C@@H](OC(=O)N1Cc2c(Nc3ncnc4c3ncn4C)n[nH]c2C1(C)C)c1ccccc1 [Example 78, (1S)-2-(dimethylamino)-1-phenylethyl 6,6-dimethyl-3-[(9-methyl-9H-purin-6-yl)amino]-4,6-dihydropyrrolo[3,4-c]pyrazole-5(1H)-carboxylate] | > 4000 | 330
7 | Cc1nc(Nc2n[nH]c3c2CN(C(=O)O[C@H](CN(C)C)c2ccccc2)C3(C)C)c2ccsc2n1 [Example 69, (1S)-2-(dimethylamino)-1-phenylethyl 6,6-dimethyl-3-[(2-methylthieno[2,3-d]pyrimidin-4-yl)amino]-4,6-dihydropyrrolo[3,4-c]pyrazole-5(1H)-carboxylate] | 3 | 1.9
